Experimental findings from patent US10071077B2, “Use of enoximone in the treatment of atopic immune-related disorders, in pharmaceutical composition as well as in pharmaceutical preparation” (BREAKTHROUGH MEDICAL RESEARCH B.V., priority 2014, dated 2018) are described below.

Data set [1] deals with Human basophils stimulated with anti IgE. Put plainly: Basophil degranulation assay. The data set is classed as cell-based. As to conditions: anti IgE stimulation. Here is the method: PBMCs including basophils were treated with diluent or several doses of enoximone at 37° C. for half an hour. Next the cells were washed and incubated with anti IgE antibodies 5 µg/ml for 20 minutes at 37° C. for 20 minutes washed again at 4° C. and consequently stained for flowcytometric with CD123-BV650, CD203c-PE, CD107a-FITC, HLA-DR-PerCPCy5.5 and FcεRI-APC at 4° C. for 30 minutes. Cells were acquire with a LSRII and analyzed with Flowjo X. Basophils were identified as FcεRI+, CD123+ and HLA-DR− cells. Degranulated and/or activated basophils stained positive for CD203c and CD107a. 100% degranulated basophils were set as the % of degranulated basophils treated with diluent and stimulated with 5 µg/ml anti IgE. Proportion of inhibition was calculated as % of degranulated basophils divided by the maximal % of diluent treated degranulated basophils.
FIG. 4 Human PBMCs including basophils were treated with diluent or several doses of enoximone and cells were activated by incubation with anti IgE antibodies. Data plotted show the mean proportion of inhibition was calculated as % degranulated basophils (CD123^+FceRI^+HLA-DR^− CD107a^+CD203c^+ cells) pretreated with enoximone divided by % of diluent treated degranulated basophils (n=3).

In the next data set the test system is patients with asthma. Put plainly: Trials 1-3: treatment of asthma patients with enoximone. The data set is classed as in vivo, human. How it is done: A patient was to be operated in connection with a mammary carcinoma. They had known difficult-to-treat asthma and before the operation they received 30 mg prednisone per day as extra medication in addition to their beta-2 agonists and parasympatholytics treatment, but their breathing remained considerably obstructed. Ten minutes before the start of the anaesthesia they were given 25 mg enoximone intravenously. […] Ultimately, after a single administration of enoximone, they stayed symptom-free for two months. Based on the above experience, a second patient was treated. According to their lung specialist, they suffered from untreatable asthma and had been completely bed-ridden for a long time, among other reasons due to high doses of the traditional medication (next to some other drugs they received 50 mg prednisone per day). Inhalation therapy worked for a few minutes only due to the severe bronchoconstriction, the drying of the airways and the consequential sticky obstructive mucus. The patient received 20 mg enoximone orally in two doses of 10 mg at a 15 minutes interval. […] They remained symptom-free for 7 days. During the first day after the first administration, the patient coughed a lot, which loosened the sticky mucus. After 7 days, they received another 10 mg dose of enoximone orally, after which they again remained symptom-free for 7 days. They were ultimately able to drastically reduce their prednisone use to 5 mg per day (complete phasing out was not possible in connection with their Mixed Connected Tissue Disease). They were able to build up their condition relatively quickly with a maintenance dose of 10 mg of enoximone once every 4 days. After 3 months, they were able to perform their normal household activities again and go back to work. After another month, they were even able to do some sport with caution. Following trials 1 and 2, several patients with light to severe asthma symptoms, who up to that time had been treated exclusively with the traditional therapy with little or no results, were also treated with enoximone. […] Their individual dosage depended on the severity of the disorder. The dosage ranged from 0.1 to 0.3 mg/kg body weight, mostly in a maintenance dosage of twice a week, based on the time of recurrence of the symptoms.

Each structure is given as a SMILES string.

Consider `CSc1ccc(C(=O)c2[nH]c(=O)[nH]c2C)cc1` [enoximone, 1,3-dihydro-4-methyl-5-[4-(methylthio)benzoyl]-2H-imidazol-2-on], for which the inhibition at 20 µM in data set [1] (Homo sapiens, 20 μM enoximone, FIG. 4, read-out: inhibition of basophil activation/degranulation (CD107a and CD203c positivity)) is above 50%. The inhibition at 1000 µM in data set [1] (Homo sapiens, 1000 μM enoximone, FIG. 4, read-out: inhibition of basophil activation/degranulation (CD107a and CD203c positivity)) was above 90%. For the same molecule, the “basophil activation (CD107a and CD203c positivity)” value in data set [1] (enoximone 20-1000 μM) is “reduced basophil activation”. Moreover, the symptom-free period entry is on record as “two months” in the data set on patients with asthma (Trial 1: after a single administration of 25 mg intravenously); 7 days with patients with asthma (Trial 2: after 20 mg orally in two doses of 10 mg at a 15 minutes interval); 7 days in the data set on patients with asthma (Trial 2: after another 10 mg dose orally after 7 days); “remained days or weeks symptom-free” in the data set on patients with asthma (all the patients treated, after only one dose). Also, the “time to disappearance of asthma symptoms” value is “within a few minutes” in the data set on patients with asthma (Trial 1: person, difficult-to-treat asthma, 25 mg intravenously) and “within two minutes” in the data set on patients with asthma (Trial 2: untreatable asthma, after first oral dose of 10 mg). Besides, the “time until able to perform normal household activities and go back to work” value with patients with asthma (Trial 2: maintenance dose of 10 mg once every 4 days) was 3 months. The “prednisone use after reduction” value in the data set with patients with asthma (Trial 2: previously 50 mg prednisone per day) amounted to 5 mg per day. Further, the “progress of patients with light to severe asthma symptoms” value in the data set with patients with asthma (Trial 3: 0.1 to 0.3 mg/kg body weight, mostly twice a week) is “remarkable and fast progress”. Further, the “allergic and immune-related symptoms” value in the data set with patients with asthma (Trial 3: five patients) is listed as “substantially milder or even disappeared altogether”. The “time to improved breathing” value is reported as “within ten minutes” in the data set on patients with asthma (administered orally in cases of asthma) and “within as little as one minute” in the data set on patients with asthma (intravenous administration in cases of asthma). Moreover, in the data set on patients with asthma (all the patients treated), the time to reaction result is reported as “within a few minutes”. In addition, the “duration of improvement of the dyspnoea symptoms” value with patients with asthma (as maintenance medication) was “from a few days to several weeks or several months”. Further, the “duration of the effects of the compound” value in the data set with patients with asthma (compared with the half life of 4 hours) is reported as “lasting well beyond a month”. In addition, in the data set with patients with asthma (disappeared after one day, lowering the dose offered a solution), the side effects result is on record as “two patients reported headaches on the day of intake”.
